Test results taken from US20070135521A1, “Agent for Preventing Metabolic Syndrome” (YAMAHA HATSUDOKI KABUSHIKI KAISHA, priority 2005, published 2007).

Tests used:
[1] = tested on: obese model mice fed with a high-fat diet; experiment: Effect of astaxanthin monoester on obese model mice fed with a high-fat diet; assay type: in vivo, male C57BL/6J strain mice
Experimental: Astaxanthin was administered to obese model mice fed with a high-fat diet, and the change in body weight, the amount of subcutaneous fat (in the inguinal region and the back), the amount of visceral fat (around the reproductive organs and around the kidney), the liver weight, the blood glucose level, and the insulin concentration in blood were examined in the following manner.
Four week old male C57BL/6J strain mice (SPF) purchased from CHARLES RIVER LABORATORIES JAPAN, INC. were used. The mice were preliminarily fed for 8 days and used for the test after they reached the age of 5 weeks. The mice were divided into three groups of 8 each, that is, a normal diet group, a high-fat diet group, and a high-fat diet+astaxanthin (AX) group, so that the average body weight was equal among the groups.
During the preliminary feeding period, the mice were given an ordinary powder diet (MF, Oriental Yeast Co., Ltd.), and during the test period of 16 weeks, the mice were given the ordinary powder diet or a high-fat diet having the composition shown in Table 2 below. As to drinking water, the mice were allowed to drink freely sterile distilled water from a water supply bottle.
The astaxanthin monoester prepared in Preparation Example 1 was dissolved in an olive oil (Wako Pure Chemical Industries, Ltd.) to prepare a solution containing astaxanthin monoester at a concentration of 60 mg/mL. This solution was administered to the high-fat diet+AX group and the olive oil to the other two groups in a volume of 0.05 mL/10 g body weight every day for 16 weeks from the start of the test (at the age of 5 weeks) to the age of 21 weeks, using a sonde for oral administration in the mice.
During the test period, the body weight was measured once a week using a scale. At the end of the test, the body weight was measured, and thereafter, the mice were fasted overnight and the blood glucose level was measured in the tail of each mouse using OneTouch Ultra™ (manufactured by Life Scan Inc., a blood glucose level measuring device). Next, blood was collected from the heart using a heparinized syringe with heparin Na. Immediately after the collection of blood, blood plasma was separated by centrifugation, and the obtained blood plasma was cryopreserved at −80° C. Then, the liver, the adipose tissue in the inguinal region, the adipose tissue around the reproductive organs, the adipose tissue around the kidney, and the adipose tissue in the back were collected and the weights thereof were measured. Thereafter, the insulin concentration in blood was measured with a commercially available kit (Mouse Insulin ELISA KIT (TMB) (AKRIN-011T): Shibayagi Co., Ltd.), using the blood plasma collected at the end of the test.
The different types of data obtained were expressed as average values±standard errors for each group. In order to test for statistically significant differences between the high-fat diet group and the high-fat diet+AX group or the normal diet group, a multiple comparison test (ANOVA) was performed using an analysis software (Stat View, Abacus Inc., USA), and a comparison between the groups was performed using Fisher's PLSD multiple comparison test. Differences were considered statistically significant when p<0.05.

[2] = tested on: Human umbilical vein endothelial cells (HUVECs); experiment: Measurement of 50% lethal concentration for HUVEC (alamarBlue); assay type: cell-based; conditions: 72 hours incubation, 250 μM = maximum concentration dissolved in DMSO
Experimental: Human umbilical vein endothelial cells (HUVECs) (ATCC CRL-1730) were obtained from American Type Culture Collection and precultivated in an Endothelial Cell Growth Medium (CELL APPLICATIONS, USA) containing 10% bovine fetal serum supplemented with 1% Antibiotic-Antimycotic (GIBCO BRL, USA) under a 5% CO2 atmosphere at 37° C.
A Matrigel matrix (BD Biosciences, USA) was melted and kept at 4° C. on ice, and then, 50 μL of the matrix were transferred to each well of a 96-well tissue culture plate. The plate was incubated at 37° C. for at least one hour to solidify the matrix solution.
On the other hand, the astaxanthin monoester obtained in Preparation Example 1 was dissolved in dimethylsulfoxide (DMSO), and then diluted with distilled water to prepare stock test solutions in which the astaxanthin monoester was contained in 40 (v/v)% DMSO at 25000, 2500, 250, 25, and 2.5 μM, respectively. […]
After the incubation, 20 μL of a 90% alamarBlue reagent were added to individual wells, and incubated for an additional 6 hours. Then, the fluorescence intensity of each well was measured at an excitation wavelength of 530 nm and an emission wavelength of 590 nm using a Spectrafluor Plus plate reader to count the number of living cells. […] The 50% lethal concentration was calculated as the concentration at which the number of living cells was 50% of the number of cells at the start of the experiment.

[3] = high-fat diet+AX vs high-fat diet, end of 16-week test, FIG. 2
[4] = high-fat diet+AX vs high-fat diet, end of 16-week test, FIG. 3

Substance: astaxanthin monoester
- change over time in mean body weight ([1]; high-fat diet+AX group vs high-fat diet group, oral, every day for 16 weeks, 60 mg/mL in olive oil, 0.05 mL/10 g body weight, FIG. 1): the increase in body weight tended to be suppressed
- mean weight of subcutaneous fat [1, 3]: the accumulation of fat was significantly suppressed
- mean weight of visceral fat [1, 3]: the accumulation of fat was significantly suppressed
- proportion of the liver weight to body weight [1, 4]: the proportion approached that in the case of the normal diet
- proportions of the mean weights of the adipose tissues to mean body weight [1, 4]: the increase was significantly suppressed
- blood glucose level ([1]; high-fat diet+AX vs high-fat diet, fasted overnight, end of 16-week test, FIG. 5): maintained at the same level as that of the normal diet group
- insulin concentration in blood ([1]; high-fat diet+AX vs high-fat diet, plasma at end of 16-week test, FIG. 4): the insulin concentration was considerably suppressed
- LC50 [2]: ≥ 250 µM
